“And” between values parts separate entries of the source, which are not always exact repeats. Equal entries are not always repeated. Where two headings read alike, the source gives them in different places. Marks after values point to notes of the source that are not given here.
How the values were obtained:
[1] = target: T1, rat α1β2γ2 GABA(A) receptor (Rattus norvegicus, UniProt P18508+P62813+P63138); test: Two-electrode voltage-clamp of GABA(A) receptor expressed in Xenopus laevis oocytes; type: cell-based; details: for Emax: read-out: Emax (maximum potentiation relative to GABA alone)
T1 construct: expressed in transfected cells; host or cells: Xenopus laevis oocytes injected with cRNA (constructs a gift from Dr Erwin Sigel)
T1 sequence (P62813 28-455): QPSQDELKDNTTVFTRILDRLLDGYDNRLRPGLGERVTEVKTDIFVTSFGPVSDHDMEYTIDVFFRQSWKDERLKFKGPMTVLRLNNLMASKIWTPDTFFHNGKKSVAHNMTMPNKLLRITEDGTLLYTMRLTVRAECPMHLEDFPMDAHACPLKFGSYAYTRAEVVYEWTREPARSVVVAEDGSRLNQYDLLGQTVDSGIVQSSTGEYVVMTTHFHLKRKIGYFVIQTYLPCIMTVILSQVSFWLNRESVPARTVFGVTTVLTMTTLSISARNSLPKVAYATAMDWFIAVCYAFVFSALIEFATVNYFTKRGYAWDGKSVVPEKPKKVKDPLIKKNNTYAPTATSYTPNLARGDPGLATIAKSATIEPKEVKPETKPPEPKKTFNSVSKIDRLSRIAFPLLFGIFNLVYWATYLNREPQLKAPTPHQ
T1 sequence (P63138 25-474 limits assumed): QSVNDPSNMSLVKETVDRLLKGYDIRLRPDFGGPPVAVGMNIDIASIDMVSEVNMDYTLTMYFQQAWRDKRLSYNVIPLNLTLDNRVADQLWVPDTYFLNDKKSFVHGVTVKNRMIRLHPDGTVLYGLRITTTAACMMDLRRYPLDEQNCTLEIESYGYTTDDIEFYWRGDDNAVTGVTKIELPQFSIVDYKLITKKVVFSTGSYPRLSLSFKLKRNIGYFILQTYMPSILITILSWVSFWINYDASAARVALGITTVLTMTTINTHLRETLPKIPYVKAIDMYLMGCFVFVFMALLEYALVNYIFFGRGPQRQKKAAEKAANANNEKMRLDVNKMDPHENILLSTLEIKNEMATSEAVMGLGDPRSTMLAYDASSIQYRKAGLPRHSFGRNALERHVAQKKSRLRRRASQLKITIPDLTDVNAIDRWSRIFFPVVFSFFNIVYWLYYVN
T1 sequence (P18508 39-466): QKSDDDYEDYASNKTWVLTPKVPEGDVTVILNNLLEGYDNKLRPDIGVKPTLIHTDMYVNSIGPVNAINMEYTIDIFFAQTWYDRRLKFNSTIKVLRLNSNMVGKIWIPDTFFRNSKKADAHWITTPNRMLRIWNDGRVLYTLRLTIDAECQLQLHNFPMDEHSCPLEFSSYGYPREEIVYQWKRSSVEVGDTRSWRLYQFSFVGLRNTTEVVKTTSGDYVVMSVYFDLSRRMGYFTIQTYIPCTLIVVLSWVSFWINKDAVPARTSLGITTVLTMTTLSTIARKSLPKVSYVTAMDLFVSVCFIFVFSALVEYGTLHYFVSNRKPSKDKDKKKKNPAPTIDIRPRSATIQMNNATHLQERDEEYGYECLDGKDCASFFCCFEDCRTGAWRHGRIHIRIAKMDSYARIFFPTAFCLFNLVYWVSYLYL
Method: Oocytes from X. laevis, injected with foreign cDNA of the receptor of choice, are a commonly used tool for studying the activity of plasma membrane receptors. […] Isolation of oocytes from the frogs, defolliculation, culturing of the oocytes and injection of cRNA were performed as described previously. Oocytes were injected with 46 nl of RNA solution, with RNA coding for α1, β2 and γ2 subunits at a ratio of 10∶10∶50 nM [30]. The injected oocytes were incubated in modified Barth's solution [90 mM NaCl, 3 mM KCl, 0.82 mM MgSO4, 0.41 mM CaCl2, 0.34 mM Ca(NO3)2, 100 U/ml penicillin, 100 µg/ml streptomycin and 100 µg/ml kanamycin, 5 mM HEPES pH 7.6] at 18°C for approximately 36 h before the measurements to ensure the expression of a functional receptor.
Electrophysiological experiments were performed by the two-electrode voltage-clamp method. Measurements were done in ND96 medium containing 96 mM NaCl, 2 mM KCl, 1 mM MgCl2, 1.8 mM CaCl2 and 5 mM HEPES, pH 7.5, at a holding potential of −80 mV. Currents were measured using a custom-made two-electrode voltage clamp amplifier in combination with an XY recorder (90% response time, 0.1 s). The intracellular electrodes were filled with 3 M KCl (resistance of 0.5–1.5 MΩ). […] The perfusion solution (6 ml/min) was applied through a glass capillary with an inner diameter of 1.35 mm. […] The modulatory compounds (IVM and MOX) were first dissolved in DMSO at 20 mM and then diluted in ND96 to the final concentration.
Concentration ranges used were: IVM: 0.5 nM–10 µM; MOX: 1 nM–5 µM.
A washout period of 5 min between each agonist application was introduced, allowing receptors to fully recover from desensitization. The perfusion system was cleaned, after application of MLs, between each experiment by washing with 10% DMSO in ND96 to avoid contamination. Three or four different batches of oocytes were used to collect data for each analysis.
All experiments were conducted at least in triplicate. Differences in ML tissue concentrations were analyzed by one-way analysis of variance (ANOVA) with a Tukey post-test and are expressed as mean ± standard deviation (S.D.). […] Half-maximal concentrations (EC50), slope factors (Hill coefficients, nH) and maximal potentiation values for ML-induced activation of current were obtained using the Hill equation. Statistical analysis was performed using unpaired t-tests with Welch's correction to allow for differences in variances (GraphPad Instat, San Diego, CA, USA). Differences were considered statistically significant when p<0.05.

[2] = Acute toxicity (14-day survival, LD50) after subcutaneous administration; details: mouse, in vivo, sc, Mdr1ab(−/−) mice, survival over 14 days, determined graphically
Method: (§1) For acute toxicity experiments, Mdr1ab(−/−) mice (2–8 per dose rate) were injected subcutaneously with drug solutions at dose rates ranging from 0.1–1.75 mg/kg bw (0.11–2.0 µmol/kg bw) for IVM and 0.2–8.2 mg/kg bw (0.31–12.9 µmol/kg bw) for MOX. […] Mice were euthanized when severe tremors or ataxia were noted.

Mdr1ab(−/−) mice = test: Neurological symptoms after subcutaneous administration; type: in vivo, mouse; details: for Neurological signs: 0.46 µmol/kg SC; for Start of neurotoxic signs (lethargy, tremors and/or ataxia): dose rates close to the respective LD50 (0.46 IVM, 2.3 MOX µmol/kg)
Method: as §1

wild-type mice = details: cited from earlier work
Mdr1a-deficient mice = system: Mdr1a-deficient mice; set-up: method as in PMID 7910522; details: Mdr1a-deficient mice mutated on only the abcb1a gene; cited from earlier work
[3] = no reference given; cited from earlier work
[4] = system: purinergic (ATP) (cationic) receptors; details: cited from earlier work
acetylcholine receptors = system: acetylcholine receptors; set-up: method as in PMID 17707779; details: cited from earlier work
P-gp-deficient dogs = details: cited from earlier work
[5] = Drug concentration in plasma and brain (HPLC) in Mdr1ab(−/−) mice; type: in vivo, mouse; details: 0.23 µmol/kg SC
Method: For drug plasma concentration and brain accumulation assessment, Mdr1ab(−/−) mice were injected subcutaneously with an equivalent molar dose rate for both MLs in Mdr1ab(−/−) mice (6 animals per group): 0.23 µmol/kg, corresponding to 0.20 mg/kg and 0.15 mg/kg for IVM and MOX, respectively. Mice were sacrificed at 2 or 24 h after treatment.
(§2) Mice were anesthetized 2 h or 24 h after administration with isoflurane and heparinized blood samples were collected from the orbital sinus vein. Immediately thereafter, mice were sacrificed by cervical dislocation and brains were rapidly removed. Blood samples were centrifuged at 1500 g for 10 min at 4°C and the plasma fraction was collected and stored at −20°C until analysis. The brains were washed in saline solution and frozen at −20°C until analysis.
(§3) ML concentrations were determined in plasma and brain by high performance liquid chromatography (HPLC) with fluorescence detection according to previously described and validated methods, [25]. In brief, plasma and tissues were homogenised in acetonitrile (1∶1 v/v or 1∶2 v/w, respectively). Samples were centrifuged at 2000 g and the supernatant applied to a Supelco C18 cartridge (Supelco Inc., Bellefonte, PA, USA) by using automated solid phase extraction (SPE). […] The eluate was evaporated and the dry extract was processed to obtain a fluorophore derivative by dissolving it in 1N-methylimidazole and trifluoroacetic anhydride solutions. Samples were injected into the HPLC system (PU980 pump, Jasko, Tokyo, Japan; 360 automatic injector, Kontron, Paris, France; RF-551 fluorescence detector, Shimadzu, Kyoto, Japan). For IVM and MOX a Supelcosil LC18 column (250×4.6 mm, 5 µm, Supelco, Bellefonte, PA, USA) was used with acetic acid (0.2% in water)∶methanol∶acetonitrile (4∶40∶56, v/v/v) as mobile phase.

[6] = Drug concentration in plasma and brain (HPLC) in wild-type mice; type: in vivo, mouse; details: 24 h post-treatment; for Brain concentration at LD50: determined graphically from Figure 3B; for Brain-to-plasma ratio (slope of brain vs plasma concentration): increasing doses
Method: as §2, §3

[7] = Drug concentration in plasma and brain (HPLC) in Mdr1ab(−/−) mice; type: in vivo, mouse; details: 24 h post-treatment; for Brain concentration at LD50: determined graphically from Figure 3A; for Brain-to-plasma ratio (slope of brain vs plasma concentration): increasing doses
P-gp = system: P-gp; set-up: method as in PMID 17134887; details: cited from earlier work
humans = system: humans; set-up: method as in clinicaltrials.gov NCT00856362, NCT00300768, NCT00790998; details: approximately 1,700 people; ref clinicaltrials.gov NCT00856362, NCT00300768, NCT00790998; cited from earlier work
[8] = potentiation of current evoked by 2 µM GABA (EC10)
[9] = oral administration, ref 20 (IVM), 21 (MOX)

## NCCCC(=O)O [GABA, γ-aminobutyric acid]
[1]; GABA alone, n = 12
  EC10 (concentration producing 10% of maximal response): 2080 ± 1180 nM
  Hill slope: 1.30±0.07 and 1.30±0.02

## CCC(C)[C@H]1O[C@]2(CC[C@@H]1C)C[C@@H]1C[C@@H](C/C=C(\C)[C@@H](O[C@H]3C[C@H](OC)[C@@H](O[C@H]4C[C@H](OC)[C@@H](O)[C@H](C)O4)[C@H](C)O3)[C@@H](C)/C=C/C=C3\CO[C@@H]4[C@H](O)C(C)=CC(C(=O)O1)[C@]34O)O2 (some centres unmarked) [Ivermectin]
[2]
  LD50 at 14 days: 0.4 mg/kg and 0.46 µmol/kg
Mdr1ab(−/−) mice; 0.11 µmol/kg SC
  Behaviour of mice: no changes in the behaviour of mice were observed
Mdr1ab(−/−) mice; 0.11 µmol/kg SC, 1 h post-treatment (ditto marks to 14 d)
  Neurological symptoms observed: Visually normal
Mdr1ab(−/−) mice; 0.40 µmol/kg SC, 1 h post-treatment (ditto marks to 5 h)
  Neurological symptoms observed: Visually normal
Mdr1ab(−/−) mice; 0.40 µmol/kg SC, 6 h post-treatment
  Neurological symptoms observed: Lethargy
Mdr1ab(−/−) mice; 0.40 µmol/kg SC, 7 h post-treatment, these mice euthanized
  Neurological symptoms observed: 2/5 Ataxia ^c/tremor ^d ^†
Mdr1ab(−/−) mice; 0.40 µmol/kg SC, 12 h post-treatment
  Neurological symptoms observed: 3/5 Sleepiness
Mdr1ab(−/−) mice; 0.40 µmol/kg SC, 1 d post-treatment (ditto marks to 14 d)
  Neurological symptoms observed: Visually normal
Mdr1ab(−/−) mice; 6 h post-administration
  Neurological signs: severe neurotoxic signs
Mdr1ab(−/−) mice; just after administration
  Neurological signs: hyperactivity
Mdr1ab(−/−) mice; 0.69 µmol/kg SC, 2 h post-treatment
  Neurological symptoms observed: Rapid breathing
Mdr1ab(−/−) mice; 0.69 µmol/kg SC, 5 h post-treatment
  Neurological symptoms observed: Ataxia ^c
Mdr1ab(−/−) mice; 0.69 µmol/kg SC, 6 h post-treatment, mice euthanized
  Neurological symptoms observed: Lethargy ^†
Mdr1ab(−/−) mice
  Start of neurotoxic signs (lethargy, tremors and/or ataxia): 6 h
[1]
  EC50: 33.8 ± 7.7 nM
  Emax: 414 ± 66.1%
[1]; co-application with 2 µM GABA
  Maximum potentiation of the GABA(A) receptor by IVM compared with MOX: ~2 fold
[1]; [8]
  Concentration to reach Emax: 0.49 µM
  Hill slope: 1.52±0.45
[1]; potentiation of current evoked by 2 µM GABA (EC10), listed as IVM
  Hill slope: 1.52
wild-type mice
  LD50: 27–34 ^b µmol/kg
wild-type mice; [9]
  LD50: around 30 mg/kg
Mdr1a-deficient mice
  LD50: 0.6–0.8 µmol/kg bw
[3]
  logP: 4.8
[4]
  Concentration required to potentiate the receptors: 3 µM
Acetylcholine receptors
  Concentration required to potentiate the receptors: 30 µM
P-gp-deficient dogs; MDR1-deficient dogs, therapeutic dose 0.2 mg/kg
  Signs of neurotoxicosis: severe signs of neurotoxicosis

## CO/N=C1\C[C@]2(C[C@@H]3C[C@@H](C/C=C(\C)C[C@@H](C)/C=C/C=C4\CO[C@@H]5[C@H](O)C(C)=C[C@@H](C(=O)O3)[C@]45O)O2)O[C@H](/C(C)=C/C(C)C)[C@H]1C [Moxidectin]
[2]
  LD50 at 14 days: 1.47 mg/kg and 2.3 µmol/kg
Mdr1ab(−/−) mice; 0.46 µmol/kg SC (same dose rate as IVM)
  Toxicity: did not show any toxicity
Mdr1ab(−/−) mice; 2 µmol/kg SC, 1 h post-treatment
  Neurological symptoms observed: Visually normal
Mdr1ab(−/−) mice; 2 µmol/kg SC, 2 h post-treatment (ditto marks to 4 h; transient), listed as MOX
  Neurological symptoms observed: rapid breathing was transiently observed
Mdr1ab(−/−) mice; 2 µmol/kg SC, 5 h post-treatment (ditto marks to 14 d)
  Neurological symptoms observed: Visually normal
Mdr1ab(−/−) mice; 2.6 µmol/kg SC, 1 h post-treatment (ditto marks to 3 h)
  Neurological symptoms observed: Visually normal
Mdr1ab(−/−) mice; 2.6 µmol/kg SC, 4 h post-treatment (ditto marks to 8 h)
  Neurological symptoms observed: Sleepiness
Mdr1ab(−/−) mice; 2.6 µmol/kg SC, 12 h post-treatment, mice euthanized
  Neurological symptoms observed: Ataxia ^c/Tremor ^d ^†
Mdr1ab(−/−) mice; 4 µmol/kg SC, 1 h post-treatment
  Neurological symptoms observed: Balance problems
Mdr1ab(−/−) mice; 4 µmol/kg SC, 2 h post-treatment (ditto marks to 4 h)
  Neurological symptoms observed: Sleepiness
Mdr1ab(−/−) mice; 4 µmol/kg SC, 5 h post-treatment, mice euthanized
  Neurological symptoms observed: Ataxia ^c/Coma ^†
Mdr1ab(−/−) mice
  Start of neurotoxic signs (lethargy, tremors and/or ataxia): 4 h
[5]; 2 h
  Brain-to-plasma concentration ratio: 0.3 ± 0.1 mL/g
  Drug concentration in brain: 18.8 ± 2.8 pmol/g
[5]; 2 h, listed as MOX
  Drug concentration in brain: 18.8 ± 2.8 pmol/g
[5]; 24 h
  Brain-to-plasma concentration ratio: 2.2 ± 0.7 mL/g
  Drug concentration in brain: 93.0 ± 28.9 pmol/g
  Drug concentration in plasma: 42.8 ± 9.3 nM
[5]; 24 h, listed as MOX
  Brain-to-plasma concentration ratio: 2.2 ± 0.7 mL/g
[5]; mouse, plasma, 2 h
  concentration at 2 h: 60 ± 14.5 nM
[5]; mouse, plasma, 24 h
  concentration at 24 h: 42.8 ± 9.3 nM
[6]
  Brain concentration at LD50: 740–1380 ^d pmol/g
  Brain-to-plasma ratio (slope of brain vs plasma concentration): 0.09 (R^2 = 0.984) ^e ml/g
[6]; listed as MOX
  Brain concentration at LD50: 740 to 1380 pmol/g
  Brain-to-plasma ratio (slope of brain vs plasma concentration): 0.09 mL/g
[1]
  EC50: 11.8 ± 9.2 nM
  Emax: 257 ± 40.6%
[1]; [8]
  Concentration to reach Emax: 0.66 ^c µM
  Hill slope: 0.34±0.56
[1]; potentiation of current evoked by 2 µM GABA (EC10), listed as MOX
  Hill slope: 0.34±0.56 and 0.34
[7]
  Brain concentration at LD50: 830 ^c pmol/g
  Brain-to-plasma ratio (slope of brain vs plasma concentration): 2.6 (R^2 = 0.936) ^e ml/g
[7]; listed as MOX
  Brain concentration at LD50: 830 pmol/g
  Brain-to-plasma ratio (slope of brain vs plasma concentration): 2.6 mL/g
wild-type mice
  LD50: 70–131 ^b µmol/kg
wild-type mice; [9]
  LD50: 86 mg/kg
[3]
  logP: 6
P-gp
  Effectiveness in inhibiting transport activity by P-gp, fold less than IVM: 10 fold
P-gp-deficient dogs; P-gp-deficient Collie dogs, spot-on application
  Dose safely used: up to 32.5 mg/kg
P-gp-deficient dogs; P-gp-deficient dogs sensitive to IVM, 100 µg/kg daily for 7 days
  Signs of toxicosis: did not produce signs of toxicosis
P-gp-deficient dogs; dogs sensitive to 120 µg/kg oral IVM, similar molar dose rate, oral
  Toxicological signs: did not produce any toxicological signs
humans
  Serious adverse events: without evidence of any serious adverse events
